Experimental data as given in patent US11534457B2, “Use of dextran sulfate” (priority 2017, dated 2022).

Tested on: trabecular meshwork (TM) scarring in glaucomatous eyes
Assay: TGF-β induced glaucoma in rats, trabecular meshwork scarring (laminin, fibronectin immunohistochemistry)
Type: in vivo, Sprague Dawley rats
Protocol: Glaucoma was induced in adult male Sprague Dawley rats by repeat twice weekly intracameral (IC) injections of transforming growth factor-β (TGF-β) to increase intraocular pressure (IOP). Sustained increases in IOP (after two weeks) leads to death of retinal ganglion cells (30-40%). LMW-DS was administered at 15 mg/kg by daily subcutaneous injection […] to assess RGC protection compared to controls.
Group 1 n=12 rats; 24 eyes […] TGF-β (twice weekly for 28 days) between day 0 and day 28+ daily subcutaneous administration of dextran sulfate from day 14 to day 28.
Group 2 n=8 rats; 16 eyes IOP+IC TGF-β (twice weekly for 28 days) between day 0 and day 28+ daily subcutaneous administration of vehicle (saline) from day 14 to day 28.
Measured End-Points • IOP twice weekly throughout study from day 0 to day 28; • Immunohistochemistry for counting retinal ganglion cell (RGC) that are immunoreactive for brain-specific homeobox/POU domain protein 3A (Brn3a) at day 28 (RGC survival); • Immunohistochemistry for laminin and fibronectin to evaluate scarring in the trabecular meshwork at day 28 in Groups 1 and 2; • Anterior segment and optical coherence tomography (OCT) imaging at day 28 to examine the angle and the thickness of the retinal nerve fiber layer comprising RGC axons; and • Body weight at day 28. […]

low molecular weight dextran sulfate [LMW-DS]
immunoreactive laminin in the angle (TM scarring) vs saline (15 mg/kg daily s.c. day 14 to day 28, P<0.001): significantly reduced
immunoreactive fibronectin in the angle (TM scarring) vs saline (15 mg/kg daily s.c. day 14 to day 28, P<0.01): significantly reduced
